Laboratory results taken from patent US11925624B2, “Methods of administering anti-fibrotic therapy” (GENENTECH, INC., priority 2016, dated 2024).
Read-outs that look alike come from different tables or passages of the source.

Assays:
[1] = Serum creatinine (Scr) change from baseline, MAD study (Part B); type: in vivo, human; conditions: for Number of subjects with change in Scr <0.3 mg/dL from baseline / Number of subjects with change in Scr ≥0.3 mg/dL from baseline / Number of subjects with percent change in Scr <30% from baseline / Number of subjects with percent change in Scr ≥30% from baseline: MAD
Description: In addition to the measurement of various PK parameters in both parts of the study, the changes in the subjects' serum creatinine levels were also evaluated in this study. Tables 6A and 6B summarize the change in level and percent change in serum creatinine from averaged screening and pre-dosing values for the subjects in SAD study in each treatment group, as applicable. Tables 7A and 7B summarize the change in level and percent change in scrum creatinine from averaged screening and pre-dosing values for the subjects in MAD study. […] In Part B of the study, 2 subjects (275 mg BID) experienced clinically significant TEAEs of increased creatinine on day 5. The mean change in serum creatinine from a combined screening and pre-dose baseline in the MAD part of the study is illustrated in FIG. 1. In addition, the mean change in creatinine level from combined screening and pre-dose level in the MAD part of the study is illustrated in FIG. 2.

[2] = Phase 1 Part A proton pump inhibitor (rabeprazole) effect on single-dose pharmacokinetics; type: in vivo, human; conditions: for AUC0-t (norm) / AUC0-∞ (norm) / CL/F / CL/F(norm) / Cmax (norm) / λZ / % AUCextrap / AUC(0-inf) / AUC(0-t) / Cmax / half-life / Tmax / Vd/F: +20 mg Rabeprazole QD x 3; for % AUCextrap: arithmetic mean; for AUC(0-inf) / AUC(0-t) / Cmax / half-life / Tmax / Vd/F: human, plasma, oral; for Tmax: median
Source text: This study was a randomized, blinded, placebo-controlled, ascending-dose study to evaluate the safety, tolerability, and pharmacokinetic (PK) of single (Part A) and multiple (Part B) doses of Compound I in healthy subjects. In addition, the effects of a standard high-fat breakfast, standard low-fat breakfast, and pretreatment and co-administration of a proton pump inhibitor (PPI) on the tolerability and PK of a single dose of Compound I were investigated in 2 groups in Part A. All subjects received their full dose of Compound I, administered as the appropriate number of either 25 or 200 mg tablets. The high fat breakfast comprised the following: total energy: 895 kcal; total fat: 61 g; total protein: 41 g; total carbohydrate: 46 g. The low fat breakfast comprised the following: total energy: 611 kcal; total fat: 14.7 g; total protein: 20.3 g; total carbohydrate: 106.3 g.
For Group A4, doses (400 mg Compound I or placebo) during Treatment Period 1 were administered in a fasted state on the morning of Day 1. Doses in Treatment Period 2 were administered 30 minutes after starting, and within approximately 10 minutes of completing, a high-fat standard breakfast on the morning of Day 1. Doses during Treatment Period 3 were administered 30 minutes after starting, and within approximately 10 minutes of completing a low-fat standard meal on the morning of Day 1. Doses during Treatment Period 4 were administered on Day 1 after an overnight fast and following administration of a PPI (rabeprazole 20 mg) for 3 days (given as 3 daily [QD] doses, with the final PPI dose at 2 hours prior to study drug administration on Day 1). Subjects in Group A4 received the same Compound I or placebo treatment in all treatment periods, such that each subject received up to 4 single doses of Compound I or placebo.
For Group A5, doses (800 mg Compound I or placebo) during Treatment Period 1 were administered in a fasted state on the morning of Day 1, doses during Treatment Period 2 were administered 30 minutes after starting a low-fat standard breakfast on the morning of Day 1, and doses during Treatment Period 3 were administered on Day 1 after a low-fat meal and following administration of a PPI (rabeprazole 20 mg) for 3 days (given as 3 QD doses, with the final PPI dose at 2 hours prior to study drug administration on Day 1). Subjects in Group A5 received the same Compound I or placebo treatment in all treatment periods, such that each subject received up to 3 single doses of Compound I or placebo.
In Part A, all doses in Treatment Period 1 were administered after an overnight fast of at least 8 hours. For the A4 cohort, in Treatment Periods 2 and 3, doses were administered 30 minutes after starting and approximately 10 minutes after completing a high- or low-fat breakfast. In Treatment Period 4, the dose was administered after an overnight fast and following administration of a PPI (PPI was comprised of 3 doses of rabeprazole 20 mg, starting on Day −2 and with the final dose 2 hours before Compound I administration on Day 1). For Group A5, doses during Treatment Period 2 were administered 30 minutes after starting and approximately 10 minutes after completing a low-fat standard breakfast on the morning of Day 1, and doses during Treatment Period 3 were administered on Day 1 after a low-fat meal and following administration of a PPI for 3 days (given as 3 QD doses, with the final PPI dose at 2 hours prior to study drug administration on Day 1).

[3] = 400 mg Fasted + 20 mg Rabeprazole QD x 3 (Test) vs 400 mg Fasted (Reference)
[4] = 400 mg single dose (A4), Fasted
[5] = 800 mg Fed, Low-fat + 20 mg Rabeprazole QD x 3 (Test) vs 800 mg Fed, Low-fat (Reference)
[6] = 800 mg single dose (A5), Fed, Low-fat
[7] = pretreatment and co-administration of 20 mg rabeprazole (QD×3), low-fat fed state, compared to Compound I alone

For Cn1cc(-c2cn(-c3ccc(OC(F)(F)F)cc3)c(=O)c3ncn(C)c23)cn1 [Compound I], the “Subjects with mean change from baseline ≥0.3 mg/dL in Scr” value ([1]; MAD study, all subjects) was 25%, the “Subjects with mean percent change from baseline ≥30% in Scr” value ([1]; MAD study, all subjects) was 50% and the “Number of subjects with change in Scr <0.3 mg/dL from baseline” value ([1]; 400 mg (200 mg BID)) was 5. For the same compound, the “Number of subjects with change in Scr ≥0.3 mg/dL from baseline” value ([1]; 400 mg (200 mg BID)) was 1, the “Number of subjects with percent change in Scr <30% from baseline” value ([1]; 400 mg (200 mg BID)) was 1 and the “Number of subjects with percent change in Scr ≥30% from baseline” value ([1]; 400 mg (200 mg BID)) was 5. For the same compound, the “Number of subjects with change in Scr <0.3 mg/dL from baseline” value ([1]; 525 mg) was 5, the “Number of subjects with change in Scr ≥0.3 mg/dL from baseline” value ([1]; 525 mg) was 1 and the “Number of subjects with percent change in Scr <30% from baseline” value ([1]; 525 mg) was 3. For the same compound, the “Number of subjects with percent change in Scr ≥30% from baseline” value ([1]; 525 mg) was 3, the “Number of subjects with change in Scr <0.3 mg/dL from baseline” value ([1]; 550 mg (275 mg BID)) was 2 and the “Number of subjects with change in Scr ≥0.3 mg/dL from baseline” value ([1]; 550 mg (275 mg BID)) was 4. For the same compound, the “Number of subjects with percent change in Scr <30% from baseline” value ([1]; 550 mg (275 mg BID)) was 2, the “Number of subjects with percent change in Scr ≥30% from baseline” value ([1]; 550 mg (275 mg BID)) was 4 and the “Subjects with increases over the upper limit of normal (ULN) in serum creatinine” value ([1]; Part B (MAD), across all dose levels) was “about 56%”. The “Subjects with clinically significant TEAEs of increased creatinine” value ([1]; Part B, 275 mg BID, day 5) was 2 subjects, the “Test/Reference ratio of LS means, AUC0-t” value [2, 3] was 86.4% and the “Test/Reference ratio of LS means, AUC0-∞” value [2, 3] was 87.2%. The “Test/Reference ratio of LS means, Cmax” value [2, 3] was 83.6%, the “AUC0-t (norm)” value [2, 4] was 8130 (hr*ng/mL)/(mg/kg) and the “AUC0-∞ (norm)” value [2, 4] was 8410 (hr*ng/mL)/(mg/kg). For the same compound, the CL/F [2, 4] was 139 mL/min, the “CL/F(norm)” value [2, 4] was 1.98 (mL/min)/kg and the “Cmax (norm)” value [2, 4] was 660 ng/mL/mg/kg. For the same compound, the λZ [2, 4] was 0.0603 h⁻¹, the “% AUCextrap” value [2, 4] was 3.25% and the “Test/Reference ratio of LS means, AUC0-t” value [2, 5] was 76.5%. For the same compound, the “Test/Reference ratio of LS means, AUC0-∞” value [2, 5] was 77.2%, the “Test/Reference ratio of LS means, Cmax” value [2, 5] was 75.0% and the “AUC0-t (norm)” value [2, 6] was 11000 (hr*ng/mL)/(mg/kg). The “AUC0-∞ (norm)” value [2, 6] was 11100 (hr*ng/mL)/(mg/kg), the CL/F [2, 6] was 108 mL/min and the “CL/F(norm)” value [2, 6] was 1.50 (mL/min)/kg. The “Cmax (norm)” value [2, 6] was 900 ng/mL/mg/kg, the λZ [2, 6] was 0.0666 h⁻¹ and the “% AUCextrap” value [2, 6] was 1.27%. The AUC(0-inf) [2, 4] was 48100 ng·h/mL, the AUC(0-t) [2, 4] was 46500 ng·h/mL and the Cmax [2, 4] was 3770 ng/mL. For the same compound, the half-life [2, 4] was 10.5 h, the Tmax [2, 4] was 2.5 h and the Vd/F ([2]; 400 mg single dose (A4), Fasted, read-out: Vz/F) was 138 L. For the same compound, the Vd/F ([2]; 400 mg single dose (A4), Fasted, read-out: Vz/F(norm)) was 1.97 L/kg, the AUC(0-inf) [2, 6] was 124000 ng·h/mL and the AUC(0-t) [2, 6] was 122000 ng·h/mL. The Cmax [2, 6] was 10000 ng/mL, the half-life [2, 6] was 8.92 h and the Tmax [2, 6] was 3 h. For the same compound, the Vd/F ([2]; 800 mg single dose (A5), Fed, Low-fat, read-out: Vz/F) was 97.2 L, the Vd/F ([2]; 800 mg single dose (A5), Fed, Low-fat, read-out: Vz/F(norm)) was 1.35 L/kg and the “Decrease in AUC0-t” value [2, 7] was 23.5%. For the same compound, the “Decrease in AUC0-∞” value [2, 7] was 22.8% and the “Decrease in Cmax” value [2, 7] was 25.0%.
